Assay results published in paper PMC12801976, “Enzyme-Powered CO2 Utilization: A Bifunctional Immobilized Biocatalyst for Intensified CCU of Industrial Feedstocks to High-Value Chemicals” (ACS Sustainable Chemistry & Engineering, 2025).

Biological target: T1, glycerol dehydrogenase (GlyDH)
T1 construct: His-tagged, produced and purified in house (details only in SI); multimeric zinc metalloenzyme; free enzyme
Assay: NADH formation at […] nm, DHA dose series
Type: biochemical
Details: free enzyme; product inhibition; standard assay 100 mM glycerol, 2.5 mM NAD+, 100 mM phosphate pH 7.0, 30 °C

IC50: 330 µM
SMILES: O=C(CO)CO [DHA, dihydroxyacetone]
